Source: patent publication US20150112425A1, “DELIVERY OF HIGHLY LIPOPHILIC AGENTS VIA MEDICAL DEVICES” (Abbott Laboratories, priority 2005, published 2015)
Read-outs that look alike come from different tables or passages of the source.

What was measured:
[1] = representative summary; cited from earlier work
[2] = Pharmacokinetics after single intravenous dose in cynomolgus monkey; type: in vivo; details: for Terminal elimination half-life compared to rapamycin: cynomolgus monkey, intravenous; for t1/2: terminal elimination, single 2.5 mg/kg intravenous dose, blood
[3] = Transfer coefficient (P divided by S) of DES drugs (FIG. 21); type: physicochemical; details: P divided by equilibrium aqueous solubility S (μg/ml)
[4] = Shake-flask aqueous solubility study of DES drugs (FIG. 20); details: amorphous DES drugs; dexamethasone crystalline
[5] = Six-hour elution from PC1036-coated coupons (FIG. 10-13); type: physicochemical; details: for Amount released from coupon: after 6 hours, pH 7.4 PBS, 37° C.; for Amount remaining on coupon: six-hour elution
Experimental: Prior to any experimentation, coated stainless steel coupons were prepared. These coupons were 316 L electropolished stainless steel discs (10 mm diameter). This size was chosen because the surface area of one side of the coupon is similar to the surface area of a 15-mm open cell BiodivYsio stent. […]. The cleaning was a two-step process in which the coupons are sonicated for 3 minutes in dichloromethylene and 3 minutes in ethanol. The coupons were allowed to dry at room temperature. One side of the coupon was coated using a filtered 20-mg/mL solution of phosphoryl choline polymer PC1036 (product of Biocompatibles Ltd., Farnham, Surrey, UK) in ethanol. Twenty μL PC solution was placed onto the coupon using a gas tight glass syringe, ensuring that the entire surface was coated but not spilling over the sides of the coupon. The coupons were initially air dried and then cured at 70° C. for 16 hours. They were then sent for gamma irradiation at <25KGy. The resulting PC coating thickness was close to that of the stent and thick enough to accommodate the desired loaded drug dose, as graphically represented in FIG. 9A-B. FIG. 9A-B is a top and side view of a coated stainless steel coupon 30, having a PC-coating 20 on a electropolished stainless steel disc.
In these experiments, beneficial agents were loaded onto coupons and elution profiles examined. In general, the procedure is as follows. Twelve PC-coated coupons were loaded with each drug. The solutions of the drugs were usually 5.0 mg/mL in 100% ethanol and were filtered with a 0.45 μm filter prior to use.
The coupons were weighed before loading with the drug solution. To load 100 μg of drug, 20 μL of solution was placed (e.g., pipetted) on the center of the PC coated side of the coupon. The coupon was placed in a vial for 30 minutes with the lid closed to allow the drug to penetrate the coating. The lid was removed and the coupon was allowed to dry for an additional 90 minutes. To ensure that the coupon was completely dry, the coupon was weighed, and after 15 minutes the coupon was weighed a third time. When two weightings of the coupon were the same, the coupon was considered dry. The loaded, dry coupons were stored in a refrigerator protected from light.
For each drug, six coupons were used to evaluate the total amount of drug loaded by the above procedure. The coupons were immersed in 5 mL of 50% ethanol, 50% water solution and sonicated for 1 hour. The concentration of the drug in the extraction solution was analyzed by HPLC.
At the end of the elution experiments discussed below, the coupons were removed from the elution media and immersed in 5 mL of 50% ethanol, 50% water solution and sonicated for 1 hour. The concentration of the drug in these vials indicated the amount of the drug remaining in the coupons at the end of the elution experiments.
Six coated coupons of each drug were used for the elution experiments. The coupons were individually placed, coating side up, in small metal cups to hold the coupon and to allow movement to a new vial at each time point. The coupons were usually placed in a vial containing 10 mL of pH 7.4 phosphate buffered saline. The vials were stored in an orbital shaker, with horizontal shaking of 100 rpm, at 37° C. for at least 30 minutes before insertion of a coupon to allow the solution to equilibrate at the desired temperature. After the desired time had lapsed, the coupon holder was lifted and allowed to drain. It was then placed into a pre-warmed vial corresponding to the next time point. This procedure continued until the predetermined time had elapsed. At that point, the coupons went through a drug extraction step as outlined earlier. The amount of drug in the elution samples was determined by HPLC.

[6] = Shake-flask octanol/water partition coefficient study of DES drugs (FIG. 20); type: physicochemical
Experimental: “Solubility” is based on a standard measure used in medicinal chemistry. The octanol-water partition coefficient (P) is the ratio of distribution of a compound in a mixture of 1-octanol and H2O. Log P is the base 10 logarithm of the partition coefficient.
In the measurement of the partition coefficient (octanol/water), preliminary studies were conducted to determine the optimum drug concentration for each test, and the appropriate time for establishing the partition equilibrium. All experiments were carried out by two different analysts and on multiple drug lots.

[7] = test system: human mixed lymphocyte reaction (MLR); assay: Human mixed lymphocyte reaction (MLR) assay; type: cell-based; details: read-out: Human MLR IC50 ± S.E.M.
[8] = Stability of dexamethasone on PC-coated stents in ETO sterilization (FIG. 16); type: physicochemical

CCCCCCCCCCCCCCCCCC(=O)O [Stearic acid]
LogP Values [1]: >6

CC/C=C\C/C=C\C/C=C\CCCCCCCC(=O)O [Linolenic acid]
LogP Values [1]: >6

COC1CC2CCC(C)C(O)(O2)C(=O)C(=O)N2CCCCC2C(=O)OC(C(C)CC2CCC(n3cnnn3)C(OC)C2)CC(=O)C(C)C=C(C)C(O)C(OC)C(=O)C(C)CC(C)C=CC=CC=C1C (single isomer, unassigned; more polar) [Example 2, 42-Epi-(tetrazolyl)-rapamycin (more polar isomer)]
Terminal elimination half-life compared to rapamycin [2]: substantially shorter

CC(=O)O[C@H]1C(=O)[C@@]2(C)[C@H]([C@H](OC(=O)c3ccccc3)[C@]3(O)C[C@H](OC(=O)[C@H](O)[C@@H](NC(=O)c4ccccc4)c4ccccc4)C(C)=C1C3(C)C)[C@]1(OC(C)=O)CO[C@@H]1C[C@@H]2O [Paclitaxel]
Transfer coefficient, rank order [3]: zotarolimus>>paclitaxel>>rapamycin>dexamethasone | Aqueous solubility, rank order [4]: increasing order: paclitaxel, zotarolimus, rapamycin, and dexamethasone (crystalline)

OCCN(CCO)c1nc(N2CCCCC2)c2nc(N(CCO)CCO)nc(N3CCCCC3)c2n1 [Dipyridamole]
Amount released from coupon ([5]; in absence of zotarolimus): ~90% | Amount released from coupon ([5]; in presence of zotarolimus): about 52%

CC(=O)[C@H]1CC[C@H]2[C@@H]3CCC4=CC(=O)CC[C@]4(C)[C@H]3CC[C@]12C [Progesterone]
LogP Values [1]: 3.2

CC[C@]1(O)C[C@H]2CN(CCc3c([nH]c4ccccc34)[C@@](C(=O)OC)(c3cc4c(cc3OC)N(C=O)[C@H]3[C@@](O)(C(=O)OC)[C@H](OC(C)=O)[C@]5(CC)C=CCN6CC[C@]43[C@@H]65)C2)C1 [Vincristine]
LogP Values [1]: 2.6

CC(C)OC(=O)C(C)(C)Oc1ccc(C(=O)c2ccc(Cl)cc2)cc1 [Fenofibrate]
LogP Values [1]: >4.5

CCCCCCCC/C=C\CCCCCCCC(=O)O [Oleic acid]
LogP Values [1]: >6

COc1ccccc1OCCNCC(O)COc1cccc2[nH]c3ccccc3c12 (centres unmarked) [Carvedilol]
LogP Values [1]: 1.97

O=C(Oc1ccccc1)c1ccccc1O [Phenyl salicylate]
LogP Values [1]: 4.1

CO[C@H]1C[C@@H]2CC[C@@H](C)[C@@](O)(O2)C(=O)C(=O)N2CCCC[C@H]2C(=O)O[C@H]([C@H](C)C[C@@H]2CC[C@@H](O)[C@H](OC)C2)CC(=O)[C@H](C)/C=C(\C)[C@@H](O)[C@@H](OC)C(=O)[C@H](C)C[C@H](C)/C=C/C=C/C=C/1C [Rapamycin]
Transfer coefficient, rank order [3]: zotarolimus>>paclitaxel>>rapamycin>dexamethasone | Lipophilicity rank among DES drugs tested [6]: the most lipophilic compounds in the group tested | LogP Values [1]: >4.5 | Aqueous solubility, rank order [4]: increasing order: paclitaxel, zotarolimus, rapamycin, and dexamethasone (crystalline) | IC50 ([7]; Homo sapiens, Lymphocyte): 0.91 ± 0.36 nM

CC[C@]1(O)C[C@@H]2CN(CCc3c([nH]c4ccccc34)[C@@](C(=O)OC)(c3cc4c(cc3OC)N(C)[C@H]3[C@@](O)(C(=O)OC)[C@H](OC(C)=O)[C@]5(CC)C=CCN6CC[C@]43[C@@H]65)C2)C1 [Vinblastine]
LogP Values [1]: 3.6

CO[C@H]1C[C@@H]2CC[C@@H](C)[C@@](O)(O2)C(=O)C(=O)N2CCCC[C@H]2C(=O)O[C@H]([C@H](C)C[C@@H]2CC[C@H](n3ncnn3)[C@H](OC)C2)CC(=O)[C@H](C)/C=C(\C)[C@@H](O)[C@@H](OC)C(=O)[C@H](C)C[C@H](C)/C=C/C=C/C=C/1C (single isomer, unassigned; less polar) [Example 1, 42-Epi-(tetrazolyl)-rapamycin (less polar isomer)]
Terminal elimination half-life compared to rapamycin [2]: substantially shorter

C[C@@H]1C[C@H]2[C@@H]3CCC4=CC(=O)C=C[C@]4(C)[C@@]3(F)[C@@H](O)C[C@]2(C)[C@@]1(O)C(=O)CO [Dexamethasone]
Degradation in ETO sterilization environment ([8]; dexamethasone-only coating): degraded | Degradation in ETO sterilization environment ([8]; loaded in combination with zotarolimus, 1-to-1 ratio): did not degrade | LogP Values [1]: ~1.9-2.2 | Aqueous solubility, rank order [4]: increasing order: paclitaxel, zotarolimus, rapamycin, and dexamethasone (crystalline) | Amount remaining on coupon ([5]; coupon containing zotarolimus): ~70% | Amount remaining on coupon ([5]; no zotarolimus present): 25%

CCCCN(CCCC)C(=O)CN1C[C@H](c2ccc3c(c2)OCO3)[C@@H](C(=O)O)[C@@H]1c1ccc(OC)cc1.Cl [ABT-627, atrasentan]
LogP Values [1]: 3.4 | Amount released from coupon ([5]; in absence of zotarolimus): 50% | Amount released from coupon ([5]; in presence of zotarolimus): less than 10%

COC1CC2CCC(C)C(O)(O2)C(=O)C(=O)N2CCCCC2C(=O)OC(C(C)CC2CCC(n3ccc(=O)cc3)C(OC)C2)CC(=O)C(C)C=C(C)C(O)C(OC)C(=O)C(C)CC(C)C=CC=CC=C1C (stereo not drawn) [Example 4-pyridone, 40-epi-N-[4′-pyridone]-rapamycin]
t1/2 [2]: 13.3 h | IC50 [7]: 0.43 ± 0.2 nM

CC(C)(Sc1cc(C(C)(C)C)c(O)c(C(C)(C)C)c1)Sc1cc(C(C)(C)C)c(O)c(C(C)(C)C)c1 [Probucol]
LogP Values [1]: >8

CC[C@]1(O)C[C@@H]2CN(CCc3c([nH]c4ccccc34)[C@@](C(=O)OC)(c3cc4c(cc3OC)N(C)[C@H]3[C@@](O)(C(N)=O)[C@H](O)[C@]5(CC)C=CCN6CC[C@]43[C@@H]65)C2)C1 [Vindesine]
LogP Values [1]: 1.3

CCCCC/C=C\C/C=C\CCCCCCCC(=O)O [Linoleic acid]
LogP Values [1]: >6

40-epi-N-[2′-pyridone]-rapamycin [Example 2-pyridone]
t1/2 [2]: 2.8 h | IC50 [7]: 12.4 ± 5.3 nM

C#C[C@]1(O)CC[C@H]2[C@@H]3CCC4=Cc5oncc5C[C@]4(C)[C@H]3CC[C@@]21C [Danazol]
LogP Values [1]: 4.5

C=CC[C@@H]1/C=C(\C)C[C@H](C)C[C@H](OC)[C@H]2O[C@@](O)(C(=O)C(=O)N3CCCC[C@H]3C(=O)O[C@H](/C(C)=C/[C@@H]3CC[C@@H](O)[C@H](OC)C3)[C@H](C)[C@@H](O)CC1=O)[C@H](C)C[C@@H]2OC [Tacrolimus]
LogP Values [1]: >4.5
